From patent US9527803B2, “Crystal form VII of agomelatine, preparation method and use thereof and pharmaceutical composition containing same” (LES LABORATOIRES SERVIER, priority 2011, dated 2016)
In brackets after ≈: the same amount, converted by molar mass. Like-named read-outs stand apart in the source and are kept apart here.

Assays:
Type in all cases: physicochemical
[1] = Storage stability of crystalline forms at 40° C. for 20 days, purity and content by HPLC; settings: for Content: external standard method; for Purity: internal standard method
Description: Crystalline forms II, III, VI and VII (obtained through embodiment 3) are each placed in thermostatic containers at a temperature of 40° C. and stored for 20 days, with the stability of these crystalline samples being studied using the method of High Performance Liquid Chromatography.
1. Purity Measurement of the Sample
Chromatographic conditions: Octadecyl silane chemically bonded silica is used as packing; a mixed solution of 10 mmol/L phosphate buffer (adjusted to pH 7.0 with sodium hydroxide) and acetonitrile in the ratio 2:7 by volume acts as the mobile phase; column temperature 40° C.; and detection wavelength 220 nm. Purity is measured using an internal standard method.
In the mobile phase, crystalline forms II, III, VI and VII are distributed into 1 mg/mL solutions, 10 μL of each of which are then passed into a liquid chromatograph, with their chromatograms being recorded.
The reference sample purity measurement method was used, with measurements being made using an external standard method, the results are shown in Table I.

[2] = Measurement of water solubility (HPLC, external standard method)
Excerpt: 3. Measurement of Water Solubility
The HPLC method was used to determine water solubility, with measurements being made using an external standard method.

[3] = Determination of crystalline stability (pharmacopoeia stability assessment method); parameters: key: ✓: stable; x: unstable; settings: for Crystalline stability, influencing factor: high temperature / Crystalline stability, influencing factor: high humidity / Crystalline stability, influencing factor: illumination: exposed for 10 days; for Crystalline stability, influencing factor: high temperature: 60° C.; for Crystalline stability, influencing factor: high humidity: 92.5% RH; for Crystalline stability, influencing factor: high humidity / Crystalline stability, long term testing (6 months) / Crystalline stability, long term testing (9 months) / Crystalline stability, long term testing (12 months): 25° C.; for Crystalline stability, influencing factor: illumination: 4500 lx; for Crystalline stability, accelerated testing: hermetically sealed for 6 months, 40° C., 75% RH; for Crystalline stability, long term testing (6 months) / Crystalline stability, long term testing (9 months) / Crystalline stability, long term testing (12 months): hermetically sealed, 60% RH
Description: 4. Determination of Crystalline Stability
Measured using the pharmacopoeia stability assessment method: • 1) Influencing factor testing (exposed for 10 days): high temperature (60° C.), illumination (4500 lx), high humidity (92.5% RH, 25° C.) • 2) Accelerated testing (hermetically sealed for 6 months): temperature 40° C., humidity 75% RH • 3) Long term testing (hermetically sealed for 12 months): temperature 25° C., humidity 60% RH

[4] = After storage in thermostatically controlled containers at 40° C. for 20 days

Row | Content [1, 4] | Purity [1, 4] | Content ([1]; Before storage) | Purity ([1]; Before storage) | solubility [2] | Crystalline stability, influencing factor: high temperature [3] | Crystalline stability, influencing factor: high humidity [3] | Crystalline stability, influencing factor: illumination [3] | Crystalline stability, accelerated testing [3] | Crystalline stability, long term testing (6 months) [3] | Crystalline stability, long term testing (9 months) [3] | Crystalline stability, long term testing (12 months) [3] | solubility ([2]; read-out: Solubility) | SMILES
1 | 99.6% | 99.3% | 99.5% | 99.7% | 0.301 mg/mL (≈ 1240 µM) | ✓* | ✓ | ✓ | ✓ | ✓ | ✓ | ✓ |  | COc1ccc2cccc(CCNC(C)=O)c2c1 [Crystalline form II, N-[2-(7-methoxy-1-naphthyl)ethyl]acetamide]
2 | 99.4% | 99.3% | 99.5% | 99.9% |  |  |  |  |  |  |  |  |  | COc1ccc2cccc(CCNC(C)=O)c2c1 [Crystalline form III, N-[2-(7-methoxy-1-naphthyl)ethyl]acetamide]
3 | 99.1% | 99.6% | 99.3% | 99.7% |  | x* | ✓ | ✓ | ✓ | ✓ | ✓ | x |  | COc1ccc2cccc(CCNC(C)=O)c2c1 [Crystalline form VI, N-[2-(7-methoxy-1-naphthyl)ethyl]acetamide]
4 | 99.6% | 99.7% | 99.8% | 99.8% |  | ✓ | ✓ | ✓ | ✓ | ✓ | ✓ | ✓ | 0.33 mg/mL (≈ 1360 µM) | COc1ccc2cccc(CCNC(C)=O)c2c1 [Crystalline form VII, N-[2-(7-methoxy-1-naphthyl)ethyl]acetamide]
